Experimental data reported in EP0406958B1, “Positive inotropic and lusitropic 3,5-dihydroimidazo[2,1-b]quinazolin-2(1H)-one derivatives” (JANSSEN PHARMACEUTICA N.V., priority 1989, dated 1991).
pIC50: −log10 of the molar value.

How the values were obtained:
[1] = target: T1, Human Platelet PDE IIIc (Homo sapiens, UniProt Q14432); test: Inhibition of phosphodiesterase type IIIc (3H-cAMP hydrolysis), human platelet enzyme; format: biochemical; conditions: pH 7.1, 1.2 µM 3H-cAMP, 10 min at 37°C; IC50 calculated graphically
T1 construct: canine heart and human platelet phosphodiesterase PDE IIIc; from tissue; host or cells: human platelets
Procedure: The incubation mixture (pH 7.1) (200 »l) contained 50mM 4-morpholinopropanesulfonic acid (MOPS), 1mM ethylenebis(oxyethylenenitrilo)tetraacetic acid (EGTA), 6 mM magnesium chloride, 0.25 mg/ml bovine serum albumin, 1.2 »M ³H-cAMP (310 mCi/mmole) and the phosphodiesterase type IIIc, and was prepared by dilution with water of a stock solution of MOPS, EGTA, MgCl₂, BSA and ³H-cAMP (50 »l) and 2 to 50 »l of a solution of phosphodiesterase type IIIc, depending on the enzymatic activity. […] When the effect of different compounds on phosphodiesterase activity was tested, the medium without cAMP was incubated with the compound(s) or its carrier (DMSO - 1% final concentration) for 5 min. The enzymatic reaction was started by addition of ³H-cAMP and stopped 10 min later after transferring the tubes in a waterbath at 100°C for 40 sec. After cooling to room temperature, alkaline phosphatase (0.25 »g/ml) was added and the mixture was left at room temperature for 20 min. The mixture was subsequently applied to a 1 ml DEAE-Sephadex A-25 column (pasteur pipet) and washed twice with 3 ml 20 mM Tris-HCl at pH 7.4. The ³H-labelled reaction products in the eluate were quantified by liquid scintillation counting. The inhibiting effect of the present compounds on canine heart and human platelet phosphodiesterase PDE IIIc was measured at different concentrations of the instant compounds. The IC₅₀ values were calculated graphically from the thus obtained inhibition values.

[2] = system: mongrel dogs; test: Haemodynamic variables in dogs after cumulative intravenous bolus administration; format: in vivo; conditions: maximum end-dose 0.16 mg kg-1 (comp. 14: 0.08 mg kg-1)
Procedure: Compound (9) was dissolved in 20% hydroxypropyl beta cyclodextrine ether slightly acidified with 1N HCl, in a concentration of 1mg.ml⁻¹ (pH 5.5). The experiments were performed on 7 mongrel dogs of either sex and varying age, ranging in body weight from 27 to 33 kg (median 30 kg). The animals were intravenously anaesthetized with a mixture of 0.015 mg.kg⁻¹ scopolamine and 0.05 mg.kg⁻¹ lofentanil. The animals were intubated with a cuffed endotracheal tube. Intermittent positive pressure ventilation was performed with a mixture of pressurized air and oxygen (60/40), using a volumecontrolled ventilator (Siemens Elema). In the control period the CO₂ concentration in the expired air (ET CO₂), as determined with a capnograph (Gould Godart), was kept at 5 vol% by adjustment of the respiratory volume (resp. rate = 20 breaths.min⁻¹). A continous intravenous infusion of 0.5 mg.kg⁻¹.h⁻¹ of etomidate was started immediately after induction. Body temperature was monitored with a thermistor positioned in the pulmonary artery. To prevent blood clotting heparine, 1000 IU.kg⁻¹ iv., was administered. The electrocardiogram (ECG) was derived from limb leads (standard lead 2). Left ventricular (LVP) and ascending aortic blood pressure (AoP) were measured by retrograde catheterisation via the femoral […] with high fidelity cathetertip micromanometers (Honeywell). The other femoral vein was cannulated for injection of saline at room temperature into the right atrium and for injection of compound (9). Peak ascending aortic blood flow velocity was measured through the right carotid artery with an electomagnetic catheter-tip probe connected to a square wave electomagnetic flow meter (Janssen Scientific Instruments). The following variables -inter alia- were calculated on-line, usually at 1 min intervals: heart rate (HR), diastolic (AoPd) aortic blood pressure, left ventricular end-diastolic pressure (LVEDP), the maximum positive and maximum negative rate of change of isovolumic LVP (LV dp/dt max and min, respectively), the maximum positive first derivative divided by the actually developed pressure in the left ventricle (LV dp/dtmax/Pd). The time constant (T) of relaxation was measured with the use of an exponential analysis that also estimated the asymptote. […] In the wash-out period the effects were followed for 75 min. […]

[3] = system: mongrel dogs; test: Positive inotropy and lusitropy, blood pressure and heart rate in anaesthetized dogs, slow intravenous infusion; format: in vivo; conditions: for cardiac output / heart rate: slow iv infusion over 120 min
Procedure: The positive inotropic and lusitropic effect of the instant compounds were assessed by an in vitro assay system to detect inhibiting effect on the phosphodiesterase type IIIc and in an in vivo experiment in closed-chest anaestetized dogs by monitoring cardiac and haemodynamic effects of an intravenous infusion of the instant compounds.
Compound (9) was dissolved in 20% hydroxypropyl beta cyclodextrine ether slightly acidified with 1N HCl, in a concentration of 1mg.ml⁻¹ (pH 5.5). The experiments were performed on 7 mongrel dogs of either sex and varying age, ranging in body weight from 27 to 33 kg (median 30 kg). The animals were intravenously anaesthetized with a mixture of 0.015 mg.kg⁻¹ scopolamine and 0.05 mg.kg⁻¹ lofentanil. The animals were intubated with a cuffed endotracheal tube. Intermittent positive pressure ventilation was performed with a mixture of pressurized air and oxygen (60/40), using a volumecontrolled ventilator (Siemens Elema). In the control period the CO₂ concentration in the expired air (ET CO₂), as determined with a capnograph (Gould Godart), was kept at 5 vol% by adjustment of the respiratory volume (resp. rate = 20 breaths.min⁻¹). A continous intravenous infusion of 0.5 mg.kg⁻¹.h⁻¹ of etomidate was started immediately after induction. Body temperature was monitored with a thermistor positioned in the pulmonary artery. To prevent blood clotting heparine, 1000 IU.kg⁻¹ iv., was administered. The electrocardiogram (ECG) was derived from limb leads (standard lead 2). Left ventricular (LVP) and ascending aortic blood pressure (AoP) were measured by retrograde catheterisation via the femoral […] with high fidelity cathetertip micromanometers (Honeywell). The other femoral vein was cannulated for injection of saline at room temperature into the right atrium and for injection of compound (9). Peak ascending aortic blood flow velocity was measured through the right carotid artery with an electomagnetic catheter-tip probe connected to a square wave electomagnetic flow meter (Janssen Scientific Instruments). The following variables -inter alia- were calculated on-line, usually at 1 min intervals: heart rate (HR), diastolic (AoPd) aortic blood pressure, left ventricular end-diastolic pressure (LVEDP), the maximum positive and maximum negative rate of change of isovolumic LVP (LV dp/dt max and min, respectively), the maximum positive first derivative divided by the actually developed pressure in the left ventricle (LV dp/dtmax/Pd). The time constant (T) of relaxation was measured with the use of an exponential analysis that also estimated the asymptote. After a recorded control period of 20 min the intravenous infusion of compound (9) was started at a rate of […]. In the wash-out period the effects were followed for 75 min. […] These positive inotropic and lusitropic, and vasodilatory effects of the compound (9) are long-lasting, since the changes in the variables last for more than 75 min after stopping the infusion of a total dose of 0.60 mg.kg⁻¹. […]

[4] = slow infusion (0.005 mg kg-1 min-1) for two hours

T1 sequence (Q14432 whole entry): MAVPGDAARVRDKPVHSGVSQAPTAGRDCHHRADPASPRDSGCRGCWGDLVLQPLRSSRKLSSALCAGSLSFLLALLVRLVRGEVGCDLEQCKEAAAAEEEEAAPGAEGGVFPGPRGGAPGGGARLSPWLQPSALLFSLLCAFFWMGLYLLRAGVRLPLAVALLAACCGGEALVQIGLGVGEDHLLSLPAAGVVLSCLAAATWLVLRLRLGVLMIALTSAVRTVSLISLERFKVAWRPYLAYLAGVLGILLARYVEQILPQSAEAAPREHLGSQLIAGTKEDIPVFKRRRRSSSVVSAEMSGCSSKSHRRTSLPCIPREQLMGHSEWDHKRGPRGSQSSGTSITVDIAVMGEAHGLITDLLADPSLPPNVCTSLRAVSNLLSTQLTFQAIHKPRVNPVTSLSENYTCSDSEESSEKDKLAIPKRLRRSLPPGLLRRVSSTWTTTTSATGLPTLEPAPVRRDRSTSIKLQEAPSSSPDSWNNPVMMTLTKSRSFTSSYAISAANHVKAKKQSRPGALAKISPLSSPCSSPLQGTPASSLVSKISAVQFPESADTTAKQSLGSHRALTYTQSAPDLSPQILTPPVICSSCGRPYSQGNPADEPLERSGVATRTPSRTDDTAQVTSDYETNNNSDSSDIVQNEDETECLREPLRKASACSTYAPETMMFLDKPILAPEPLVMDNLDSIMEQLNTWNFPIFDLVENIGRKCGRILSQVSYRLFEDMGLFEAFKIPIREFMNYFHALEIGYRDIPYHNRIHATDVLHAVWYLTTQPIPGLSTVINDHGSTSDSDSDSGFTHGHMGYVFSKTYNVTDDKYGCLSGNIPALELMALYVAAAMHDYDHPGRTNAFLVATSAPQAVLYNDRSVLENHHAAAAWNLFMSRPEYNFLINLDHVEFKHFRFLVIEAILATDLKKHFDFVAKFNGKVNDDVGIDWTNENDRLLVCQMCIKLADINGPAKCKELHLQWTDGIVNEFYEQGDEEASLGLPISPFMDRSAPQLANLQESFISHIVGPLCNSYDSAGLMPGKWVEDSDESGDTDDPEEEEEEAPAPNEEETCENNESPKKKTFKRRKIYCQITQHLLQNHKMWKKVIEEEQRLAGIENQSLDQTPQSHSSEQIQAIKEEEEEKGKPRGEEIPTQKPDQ

SMILES | pIC50 [1] | % changes in haemodynamic variables: AoPd (diastolic aortic blood pressure) [2] | % changes in haemodynamic variables: HR (heart rate) [2] | % changes in haemodynamic variables: LVdp/dtmax/Pd (positive inotropic effect) [2] | % changes in haemodynamic variables: T (time constant of relaxation, positive lusitropy) [2] | also measured
COc1ccc(C(=O)c2ccc3c(c2)CN2CC(=O)NC2=N3)cc1OC [compound 24] | 6.47 |  |  |  |  | 
O=C1CN2Cc3cc(C(=O)c4ccc(F)cc4)ccc3N=C2N1 [compound 14] | 6.28 | 0% | 5% | 35% | -16% | 
COc1ccc(C(=NO)c2ccc3c(c2)CN2CC(=O)NC2=N3)cc1 [compound 13] |  | 0% | -10% | 45% | -27% | 
CN(C(=O)CO/N=C(/c1ccccc1)c1ccc2c(c1)CN1CC(=O)NC1=N2)C1CCCCC1 [compound 10, (Z)-N-cyclohexyl-N-methyl-2-[[[phenyl(1,2,3,5-tetrahydro-2-oxoimidazo[2,1-b]quinazolin-7-yl)methylene]amino]-oxy]acetamide] | 6.85 | -5% | 0% | 18% | -13% | 
CCOC(=O)C=C(c1ccccc1)c1ccc2c(c1)CN1CC(=O)NC1=N2 [compound 32] | 7.08 |  |  |  |  | 
O=C1CN2Cc3cc(/C(=N/O)c4ccccc4)ccc3N=C2N1 [compound 3, (E)-3,5-dihydro-7-[(hydroxyimino)phenylmethyl]imidazo[2,1-b]quinazolin-2(1H)-one] | 6.72 |  |  |  |  | cardiac output ([3]; anaesthetized mongrel dogs): increase in cardiac output; heart rate ([3]; anaesthetized mongrel dogs): without changing the heart rate; cardiac inotropy and lusitropy [3, 4]: dose-related increase; duration of effects after stopping the infusion [3, 4]: more than 90 minutes; systemic vasodilation [3, 4]: dose-related systemic vasodilation
COc1ccc(C(=O)c2ccc3c(c2)CN2CC(=O)NC2=N3)cc1 [compound 12] |  | 0% | 10% | 57.5% | -10% | 
O=C1CN2Cc3cc(C(=NO)c4ccccc4)ccc3N=C2N1 [compound 2, (E+Z)-3,5-dihydro-7-[(hydroxyimino)phenylmethyl]imidazo[2,1-b]quinazolin-2(1H)-one] | 6.72 | -10% | 15% | 102% | -38% | 

Continued, in another order:

pIC50 [1] | SMILES | % changes in haemodynamic variables: AoPd (diastolic aortic blood pressure) [2] | % changes in haemodynamic variables: HR (heart rate) [2] | % changes in haemodynamic variables: LVdp/dtmax/Pd (positive inotropic effect) [2] | % changes in haemodynamic variables: T (time constant of relaxation, positive lusitropy) [2] | also measured
7.24 | CN(C(=O)CON=C(c1ccccc1)c1ccc2c(c1)CN1CC(=O)NC1=N2)C1CCCCC1 [compound 8] | 0% | 0% | 29% | -45% | 
7.60 | CN(C(=O)CO/N=C(\c1ccccc1)c1ccc2c(c1)CN1CC(=O)NC1=N2)C1CCCCC1 [compound 9, (E)-N-cyclohexyl-N-methyl-2-[[[phenyl(1,2,3,5-tetrahydro-2-oxoimidazo[2,1-b]quinazolin-7-yl)methylene]amino]oxy]acetamide] |  |  |  |  | variables related to cardiac performance (LV dp/dtmax, LV dp/dtmax/Pd) ([3]; 7 anaesthetized mongrel dogs, iv infusion over 120 min, starting after 10 min of infusion (0.05 mg.kg-1 total dose)): pronounced and significant increase; left ventricular end-diastolic pressure (preload) ([3]; anaesthetized mongrel dogs, iv infusion over 120 min): no change or even a slight decrease; time constant of relaxation ([3]; anaesthetized mongrel dogs, iv infusion, starting after 10 min of infusion (0.05 mg.kg-1 total dose)): significant decrease; Systemic and pulmonary peripheral vascular resistance ([3]; anaesthetized mongrel dogs, iv infusion, starting after 20 min of infusion (0.10 mg.kg-1 total dose)): decrease significantly; cardiac output ([3]; anaesthetized mongrel dogs): concomitant increase in cardiac output; heart rate ([3]; anaesthetized mongrel dogs): no change in heart rate; duration of the changes in the variables after stopping the infusion ([3]; positive inotropic, lusitropic and vasodilatory effects, total dose of 0.60 mg.kg-1): more than 75 min
6.42 | CCOC(=O)CON=C(c1ccccc1)c1ccc2c(c1)CN1CC(=O)NC1=N2 [compound 6] | -13% | 9% | 31% | -15% | 
